Measured values published in patent publication US20130184320A1, “Imine Compounds” (BASF SE, priority 2010, published 2013).

Assays:
Format in all cases: in vivo
bemisia argentifolii = assay: B.8 Silverleaf whitefly spray test on cotton plants; conditions: 300 ppm; silverleaf whitefly adults on sprayed cotton; 3 days
Text: B.8 Silverleaf Whitefly (bemisia argentifolii)
The active compounds were formulated in cyclohexanone as a 10,000 ppm solution supplied in tubes. The tubes were inserted into an automated electrostatic sprayer equipped with an atomizing nozzle and they served as stock solutions for which lower dilutions were made in 50% acetone:50% water (v/v). A nonionic surfactant (Kinetic®) was included in the solution at a volume of 0.01% (v/v).
Cotton plants at the cotyledon stage (one plant per pot) were sprayed by an automated electrostatic plant sprayer equipped with an atomizing spray nozzle. The plants were dried in the sprayer fume hood and then removed from the sprayer. Each pot was placed into a plastic cup and about 10 to 12 whitefly adults (approximately 3-5 days old) were introduced. The insects were collected using an aspirator and a nontoxic Tygon® tubing connected to a barrier pipette tip. The tip, containing the collected insects, was then gently inserted into the soil containing the treated plant, allowing insects to crawl out of the tip to reach the foliage for feeding. Cups were covered with a reusable screened lid. […] Mortality was assessed 3 days after treatment, compared to untreated control plants.

Aphis craccivora = assay: B.2 Cowpea aphid spray test on potted cowpea plants; conditions: sprayed plants, assessed after 24, 72 and 120 hours, read-out: mortality in comparison with untreated controls
Description: B.2 Cowpea Aphid (Aphis craccivora)
Potted cowpea plants colonized with approximately 100-150 aphids of various stages were sprayed after the pest population had been recorded. Population reduction was assessed after 24, 72, and 120 hours.

Plutella xylostella = assay: B.3 Diamond back moth leaf dip test on Chinese cabbage; conditions: foliar, recorded 24, 72 and 120 hours after treatment, read-out: mortality in comparison with untreated controls
Description: B.3 Diamond Back Moth (Plutella xylostella)
Leaves of Chinese cabbage were dipped in test solution and air-dried. Treated leaves were placed in petri dished lined with moist filter paper. Mortality was recorded 24, 72, and 120 hours after treatment.

Myzus persicae = assay: B.4 Green peach aphid systemic test, artificial diet in 96-well plates; conditions: 72 h, 3 days, read-out: mortality in comparison with untreated controls
Text: B.4 Green Peach Aphid (Myzus persicae)
For evaluating control of green peach aphid (Myzus persicae) through systemic means the test unit consisted of 96-well-microtiter plates containing liquid artificial diet under an artificial membrane.
The compounds were formulated using a solution containing 75% v/v water and 25% v/v DMSO. Different concentrations of formulated compounds were pipetted into the aphid diet, using a custom built pipetter, at two replications.
After application, 5-8 adult aphids were placed on the artificial membrane inside the microtiter plate wells. The aphids were then allowed to suck on the treated aphid diet and incubated at about 23±1° C. and about 50±5% relative humidity for 3 days. Aphid mortality and fecundity was then visually assessed.

Ceratitis capitata = assay: B.5 Mediterranean fruitfly microtiter plate diet test; conditions: 120 h, Mediterranean fruitfly eggs and larvae on diet, 5 days, read-out: mortality in comparison with untreated controls
Description: B.5 Mediterranean Fruitfly (Ceratitis capitata)
For evaluating control of Mediterranean fruitfly (Ceratitis capitata) the test unit consisted of microtiter plates containing an insect diet and 50-80 C. capitata eggs.
The compounds were formulated using a solution containing 75% v/v water and 25% v/v DMSO. Different concentrations of formulated compounds were sprayed onto the insect diet at 5 μl, using a custom built micro atomizer, at two replications.
(§1) After application, microtiter plates were incubated at about 28±1° C. and about 80±5% relative humidity for 5 days. Egg and larval mortality was then visually assessed.

Dichromothrips corbetti = assay: B.6 Orchid thrips floral-immersion test; conditions: 96 h, orchid thrips adults, 4 days, read-out: mortality in comparison with untreated controls
Description: B.6 Orchid Thrips (dichromothrips corbetti)
Dichromothrips corbetti adults used for bioassay were obtained from a colony maintained continuously under laboratory conditions. For testing purposes, the test compound was diluted to a concentration of 500 ppm (wt compound: vol diluent) in a 1:1 mixture of acetone:water (vol:vol), plus 0.01% vol/vol Kinetic® surfactant.
Thrips potency of each compound was evaluated by using a floral-immersion technique. Plastic petri dishes were used as test arenas. All petals of individual, intact orchid flowers were dipped into treatment solution and allowed to dry. Treated flowers were placed into individual petri dishes along with 10-15 adult thrips. The petri dishes were then covered with lids. All test arenas were held under continuous light and a temperature of about 28° C. for duration of the assay. After 4 days, the numbers of live thrips were counted on each flower, and along inner walls of each petri dish. The level of thrips mortality was extrapolated from pre-treatment thrips numbers.

Heliothis virescens = assay: B.11 Tobacco budworm I microtiter plate diet test; conditions: 120 h, tobacco budworm eggs and larvae on diet, 5 days, read-out: mortality in comparison with untreated controls
Description: B.11 Tobacco Budworm (Heliothis virescens) I
For evaluating control of tobacco budworm (Heliothis virescens) the test unit consisted of 96-well-microtiter plates containing an insect diet and 15-25 H. virescens eggs.
The compounds were formulated using a solution containing 75% v/v water and 25% v/v DMSO. Different concentrations of formulated compounds were sprayed onto the insect diet at 10 μl, using a custom built micro atomizer, at two replications.
as §1

Anthonomus grandis = assay: B.12 Boll weevil microtiter plate diet test; conditions: 120 h, boll weevil eggs and larvae on diet, 5 days, read-out: mortality in comparison with untreated controls
Description: B.12 Boll Weevil (Anthonomus grandis)
For evaluating control of boll weevil (Anthonomus grandis) the test unit consisted of 24-well-microtiter plates containing an insect diet and 20-30 A. grandis eggs.
The compounds were formulated using a solution containing 75% v/v water and 25% v/v DMSO. Different concentrations of formulated compounds were sprayed onto the insect diet at 20 μl, using a custom built micro atomizer, at two replications.
After application, microtiter plates were incubated at about 23±1° C. and about 50±5% relative humidity for 5 days. Egg and larval mortality was then visually assessed.

SMILES | mortality in comparison with untreated controls (bemisia argentifolii) | mortality at 500 ppm (Aphis craccivora) [%] | mortality at 500 ppm (Plutella xylostella) [%] | mortality at 2500 ppm (Myzus persicae) [%] | mortality at 2500 ppm (Ceratitis capitata) [%] | mortality at 500 ppm (Dichromothrips corbetti) [%] | mortality at 2500 ppm (Heliothis virescens) [%] | mortality at 2500 ppm (Anthonomus grandis) [%]
CNC(=O)NN=Cc1ccc(N2CCC(c3cc(Cl)cc(Cl)c3)(C(F)(F)F)C2)cc1Cl (centres unmarked) [Compound 2-4] | at least 75% | – | – | – | – | – | – | –
O=C(NCC(F)(F)F)N/N=C/c1ccc(N2CC(c3cc(Cl)cc(Cl)c3)(C(F)(F)F)OC2=O)cc1Cl (centres unmarked) [Compound 3-1, 1-[(E)-[2-chloro-4-[5-(3,5-dichlorophenyl)-2-oxo-5-(trifluoromethyl)oxazolidin-3-yl]phenyl]methyleneamino]-3-(2,2,2-trifluoroethyl)urea] | – | ≥ 75 | ≥ 75 | ≥ 75 | ≥ 75 | ≥ 75 | ≥ 75 | ≥ 75
